Data taken from the supplement of paper PMC4862054.

Columns and labels:
Conditions in all cases: incubation time: 72 h
BT-474 [1] = assay: normalised response (% of control), CellTox Green; higher = less cell death (100 = DMSO, 0 = benzethonium chloride kill control)
In short: (§1)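 CellTox Green fluorescence (485/520 nm) and, after 10 min at room temperature, CellTiter-Glo luminescence were read from breast cancer cell lines incubated 72 h in 384-well plates. Cells were seeded as 20 µl suspension onto compound at 5 concentrations in 10-fold steps over a 10,000-fold range chosen per compound. Each plate was normalised to 0.1 % DMSO (100) and a positive kill control (0). Values are normalised signals, one per concentration.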

BT-549 [2] = assay: as above
In short: as §1

CAL-120 [3] = assay: as above
In short: as §1

CAL-148 [4] = assay: as above
In short: as §1

CAL-51 [5] = assay: as above
In short: as §1

CAL-85-1 [6] = assay: as above
In short: as §1

DU-4475 [7] = assay: as above
In short: as §1

HCC1143 [8] = assay: as above
In short: as §1

HCC1599 [9] = assay: as above
In short: as §1

HCC1937 [10] = assay: as above
In short: as §1

HDQ-P1 [11] = assay: as above
In short: as §1

Hs578T [12] = assay: as above
In short: as §1

MCF-10A [13] = assay: as above
In short: as §1

MDA-MB-231 [14] = assay: as above
In short: as §1

MDA-MB-436 [15] = assay: as above
In short: as §1

MDA-MB-453 [16] = assay: as above
In short: as §1

MDA-MB-468 [17] = assay: as above
In short: as §1

MFM-223 [18] = assay: as above
In short: as §1

BT-474 [19] = assay: normalised response (% of control), CellTiter-Glo; higher = more viable cells (100 = DMSO, 0 = benzethonium chloride kill control)
In short: as §1

BT-549 [20] = assay: as above
In short: as §1

CAL-120 [21] = assay: as above
In short: as §1

CAL-148 [22] = assay: as above
In short: as §1

CAL-51 [23] = assay: as above
In short: as §1

CAL-85-1 [24] = assay: as above
In short: as §1

DU-4475 [25] = assay: as above
In short: as §1

HCC1143 [26] = assay: as above
In short: as §1

HCC1599 [27] = assay: as above
In short: as §1

HCC1937 [28] = assay: as above
In short: as §1

HDQ-P1 [29] = assay: as above
In short: as §1

Hs578T [30] = assay: as above
In short: as §1

MCF-10A [31] = assay: as above
In short: as §1

MDA-MB-231 [32] = assay: as above
In short: as §1

MDA-MB-436 [33] = assay: as above
In short: as §1

MDA-MB-453 [34] = assay: as above
In short: as §1

MDA-MB-468 [35] = assay: as above
In short: as §1

MFM-223 [36] = assay: as above
In short: as §1

SK-BR-3 = assay: as above
In short: as §1

| Structure (SMILES) | normalised response (BT-474 [1]) [%] | normalised response (BT-549 [2]) [%] | normalised response (CAL-120 [3]) [%] | normalised response (CAL-148 [4]) [%] | normalised response (CAL-51 [5]) [%] | normalised response (CAL-85-1 [6]) [%] | normalised response (DU-4475 [7]) [%] | normalised response (HCC1143 [8]) [%] | normalised response (HCC1599 [9]) [%] | normalised response (HCC1937 [10]) [%] | normalised response (HDQ-P1 [11]) [%] | normalised response (Hs578T [12]) [%] | normalised response (MCF-10A [13]) [%] | normalised response (MDA-MB-231 [14]) [%] | normalised response (MDA-MB-436 [15]) [%] | normalised response (MDA-MB-453 [16]) [%] | normalised response (MDA-MB-468 [17]) [%] | normalised response (MFM-223 [18]) [%] | normalised response (BT-474 [19]) [%] | normalised response (BT-549 [20]) [%] | normalised response (CAL-120 [21]) [%] | normalised response (CAL-148 [22]) [%] | normalised response (CAL-51 [23]) [%] | normalised response (CAL-85-1 [24]) [%] | normalised response (DU-4475 [25]) [%] | normalised response (HCC1143 [26]) [%] | normalised response (HCC1599 [27]) [%] | normalised response (HCC1937 [28]) [%] | normalised response (HDQ-P1 [29]) [%] | normalised response (Hs578T [30]) [%] | normalised response (MCF-10A [31]) [%] | normalised response (MDA-MB-231 [32]) [%] | normalised response (MDA-MB-436 [33]) [%] | normalised response (MDA-MB-453 [34]) [%] | normalised response (MDA-MB-468 [35]) [%] | normalised response (MFM-223 [36]) [%] | normalised response (SK-BR-3) [%] |
| --- | --- | --- | --- | --- | --- | --- | --- | --- | --- | --- | --- | --- | --- | --- | --- | --- | --- | --- | --- | --- | --- | --- | --- | --- | --- | --- | --- | --- | --- | --- | --- | --- | --- | --- | --- | --- | --- |
| CC[C@H](C)C(=O)O[C@H]1C[C@H](O)C=C2C=C[C@H](C)[C@H](CC[C@@H](O)C[C@@H](O)CC(=O)O)[C@H]21 [Pravastatin] (10000 nM) | 99.4 | 90.3 | 101 | 91.6 | 16.5 | 106 | 93.2 | 101 | 89.1 | 96.1 | 97.2 | 115 | 26.1 | 54.3 | -63.1 | 94.4 | 21.1 | 63.1 | 50.8 | 56.4 | 58 | 39.7 | 36 | 44.8 | 41.6 | 42.3 | 29.5 | 37 | 65.7 | 70.3 | 67.1 | 61 | 21.6 | 55.3 | 34.5 | 49.5 | 21.6 |
| CC1=C(/C=C/C(C)=C/C=C/C(C)=C/C(=O)O)C(C)(C)CCC1 [Tretinoin] (10000 nM) | 68.7 | 76.9 | 101 | 102 | 98.5 | 55.4 | 98 | 84.1 | 102 | 61.1 | 80.3 | 75.1 | 73.5 | 36.8 | 88.9 | 94.4 | 127 | 103 | 62.2 | 62.2 | 98.2 | 75 | 86.2 | 56.5 | 89.9 | 84.7 | 61.6 | 72.3 | 90 | 72.9 | 60.7 | 63.5 | 79.2 | 56.4 | 81 | 78.9 | 21.8 |
| Oc1ncc(N(CCCl)CCCl)c(O)n1 [Uracil mustard] (10000 nM) | 107 | 94.2 | 107 | 104 | 97.5 | 95.4 | 100 | 115 | 99.1 | 98.4 | 83.4 | 135 | 123 | 101 | 97.6 | 98 | 133 | 100 | 99.5 | 97.9 | 107 | 107 | 78.5 | 103 | 99.4 | 105 | 115 | 98.9 | 98.1 | 98.3 | 101 | 95.6 | 99.1 | 89.4 | 101 | 104 | 100 |
| C=CC(=O)N1CCC[C@@H](n2nc(-c3ccc(Oc4ccccc4)cc3)c3c(N)ncnc32)C1 [Ibrutinib] (1000 nM) | 83.8 | 92.3 | 102 | 86.6 | 87.5 | 26.8 | 97.2 | 111 | 106 | 94.5 | 74.8 | 92 | 76.5 | 115 | 93 | 46.3 | 75.1 | 100 | 106 | 110 | 100 | 101 | 85.7 | 50.2 | 118 | 102 | 111 | 94.9 | 68.3 | 106 | 42.5 | 105 | 109 | 73.6 | 80.7 | 88.4 | 24.5 |
| CC(=O)Nc1cccc(-n2c(=O)n(C3CC3)c(=O)c3c(Nc4ccc(I)cc4F)n(C)c(=O)c(C)c32)c1 [Trametinib] (250 nM) | 101 | 119 | 77.3 | 86 | 86.8 | 31.4 | 73.2 | 120 | 110 | 110 | 82.9 | 118 | 60.7 | 63.1 | 113 | 105 | 96 | 101 | 60.1 | 89 | 62.2 | 84.3 | 69 | 46.2 | 0.48 | 81.2 | 88.3 | 66.5 | 57.4 | 64.6 | 32.3 | 61.9 | 79.2 | 98 | 82.5 | 60.2 | 96.1 |
